SMILES strings stand for the structures.

The first series is described as follows: Reduction potential E1/2 of the quinone nucleus of RIND compounds (Table I). Type of series: physicochemical. Conditions: quinone nucleus with H in place of the releasing group; aqueous emulsion, DMF, nonionic surfactant, phosphate buffer pH 7; standard calomel electrode. The source says:
Examples of such nuclei are presented below.
Preferably, the E1/2 is from about +100 mV to about +400 mV as measured in water, or from about -650 to about -300 mV as measured in acetonitrile. […] Further details of measuring the E1/2 are described below prior to Table I. The desired E1/2 is achieved by appropriate electron withdrawing groups on the CAR-nucleus, or by a strained fused ring attached to the nucleus or by a combination of both.
Representative RIND compounds are listed in Table I below in reference to the following structure: [drawing 3] The E1/2 values in Table I were determined for the quinone nucleus of this structure having a hydrogen atom in place of [drawing 4] The E1/2 values (where available) were measured in an aqueous emulsion of the quinone dissolved in N,N-dimethylformamide, a nonionic surfactant (for example, TRITON X-100) and sodium phosphate buffer (pH 7). A standard calomel electrode was used as a standard. Some E1/2 values (denoted by *) were measured in acetonitrile using a saturated calomel electrode as a standard. E1/2 values not available are denoted by "NA".
As to `CC(C1=C(CN(C)C(=O)Oc2ccc(N=Nc3ccc([N+](=O)[O-])cc3S(C)(=O)=O)c3c(NS(=O)(=O)c4cccc(S(N)(=O)=O)c4)cccc23)C(=O)C(C(C)c2ccc([N+](=O)[O-])cc2)=C(CN(C)C(=O)Oc2ccc(N=Nc3ccc([N+](=O)[O-])cc3S(C)(=O)=O)c3c(NS(=O)(=O)c4cccc(S(N)(=O)=O)c4)cccc23)C1=O)c1ccc([N+](=O)[O-])cc1` (stereo not shown) [II], the E1/2 entry is recorded as “+236 mV”.
Consider `CN(CC1=C(c2ccc(C#N)cc2)C(=O)C2=C(CCCC2)C1=O)C(=O)Oc1ccc(N=Nc2ccc([N+](=O)[O-])cc2S(C)(=O)=O)c2c(NS(=O)(=O)c3cccc(S(N)(=O)=O)c3)cccc12` [IX], for which the E1/2 entry is “+220 mV”.
Turning to `CN(CC1=C(c2ccc(C(=O)O)cc2)C(=O)C2=C(CCCC2)C1=O)C(=O)Oc1ccc2c3c(cccc13)C(=O)C=C2` [RIND Compound XXXV], the E1/2 entry was “+220 mV”.
Take `CC(C)NS(=O)(=O)c1ccc(C2=C(CN(C)C(=O)Oc3ccc(N=Nc4ccc([N+](=O)[O-])cc4S(C)(=O)=O)c4c(NS(=O)(=O)c5cccc(S(N)(=O)=O)c5)cccc34)C(=O)C3=C(CCCC3)C2=O)cc1` [VIII]: the E1/2 entry was “+212 mV”.
Still for that read-out and setting: for `CN(CC1=C(c2ccc([N+](=O)[O-])cc2)C(=O)C2=C(CCCC2)C1=O)C(=O)Oc1ccc(N=Nc2ccc([N+](=O)[O-])cc2S(C)(=O)=O)c2c(NS(=O)(=O)c3cccc(S(N)(=O)=O)c3)cccc12` [VII] the value was “+236 mV”.
In the case of `CN(CC1=C(c2ccccc2)C(=O)C2=C(CCCC2)C1=O)C(=O)Oc1ccc(N=Nc2ccc([N+](=O)[O-])cc2S(C)(=O)=O)c2c(NS(=O)(=O)c3cccc(S(N)(=O)=O)c3)cccc12` [VI], the E1/2 entry is listed as “+180 mV”.
As to `CN(CC1=C(c2cccc([N+](=O)[O-])c2)C(=O)C2=C(CCCC2)C1=O)C(=O)Oc1ccc(N=Nc2ccc([N+](=O)[O-])cc2S(C)(=O)=O)c2c(NS(=O)(=O)c3cccc(S(N)(=O)=O)c3)cccc12` [V], the E1/2 result is listed as “+214 mV”.
Consider `CC(=O)c1ccc(C2=C(CN(C)C(=O)Oc3ccc(N=Nc4ccc([N+](=O)[O-])cc4S(C)(=O)=O)c4c(NS(=O)(=O)c5cccc(S(N)(=O)=O)c5)cccc34)C(=O)C3=C(CCCC3)C2=O)cc1` [XIII], for which the E1/2 entry is reported as “+212 mV”.
Same read-out and setting: for `CCCCCCCCCCC(=O)c1ccc(C2=C(CN(C)C(=O)Oc3ccc(N=Nc4ccc([N+](=O)[O-])cc4S(C)(=O)=O)c4c(NS(=O)(=O)c5cccc(S(N)(=O)=O)c5)cccc34)C(=O)C3=C(CCCC3)C2=O)cc1` [XII] the value was “+206 mV”; for `CN(CC1=C(c2ccc(Br)cc2)C(=O)C2=C(CCCC2)C1=O)C(=O)Oc1ccc(N=Nc2ccc([N+](=O)[O-])cc2S(C)(=O)=O)c2c(NS(=O)(=O)c3cccc(S(N)(=O)=O)c3)cccc12` [XIV], “+192 mV”; for `CN(CC1=C(c2ccccc2)C(=O)C2=C(C1=O)C1C=CC2C1)C(=O)Oc1ccc(N=Nc2ccc([N+](=O)[O-])cc2S(C)(=O)=O)c2c(NS(=O)(=O)c3cccc(S(N)(=O)=O)c3)cccc12` (stereo not shown) [XIX], “+242 mV”.
`CN(CC1=C(c2cc([N+](=O)[O-])cc([N+](=O)[O-])c2)C(=O)C2=C(CCCC2)C1=O)C(=O)Oc1ccc(N=Nc2ccc([N+](=O)[O-])cc2S(C)(=O)=O)c2c(NS(=O)(=O)c3cccc(S(N)(=O)=O)c3)cccc12` [XI]: the E1/2 entry is listed as “+186 mV”.
Still for that read-out and setting: for `CN(CC1=C(c2ccc(C#N)cc2)C(=O)C2=C(CC=CC2)C1=O)C(=O)Oc1ccc(N=Nc2ccc([N+](=O)[O-])cc2S(C)(=O)=O)c2c(NS(=O)(=O)c3cccc(S(N)(=O)=O)c3)cccc12` [XVII] the value was “+240 mV”; for `CCCCCCCCCCCCN(CC1=C(c2ccc(C#N)cc2)C(=O)C2=C(CCCC2)C1=O)C(=O)Oc1ccc(N=Nc2ccc([N+](=O)[O-])cc2S(C)(=O)=O)c2c(NS(=O)(=O)c3cccc(S(N)(=O)=O)c3)cccc12` [XVI], “+220 mV”; for `CN(CC1=CC(=O)C2=C(CCCC2)C1=O)C(=O)Oc1ccc(N=Nc2ccc([N+](=O)[O-])cc2S(C)(=O)=O)c2c(NS(=O)(=O)c3cccc(S(N)(=O)=O)c3)cccc12` [XV], “+213 mV”.
On to `Cc1cc(=O)oc2cc(OC(=O)N(C)CC3=C(c4cccc([N+](=O)[O-])c4)C(=O)C4=C(CCCC4)C3=O)ccc12` [XXIII], for which the E1/2 result is listed as “+214 mV”.
For the molecule `CN(CC1=C(c2cc(Cl)ccc2Cl)C(=O)C2=C(CCC2)C1=O)C(=O)Oc1ccc(N=Nc2ccc([N+](=O)[O-])cc2S(C)(=O)=O)c2c(NS(=O)(=O)c3cccc(S(N)(=O)=O)c3)cccc12` [XXIV], the E1/2 entry is recorded as “+236 mV”.
For the molecule `CN(CC1=C(c2ccc(C#N)cc2)C(=O)C2=C(CCCC2)C1=O)C(=O)Oc1ccc2c3c(cccc13)C(=O)C=C2` [XXIX], the E1/2 entry is given as “+220 mV”.
Regarding `CC1CCC(C)C2=C1C(=O)C(CN(C)C(=O)Oc1ccc(N=Nc3ccc([N+](=O)[O-])cc3S(C)(=O)=O)c3c(NS(=O)(=O)c4cccc(S(N)(=O)=O)c4)cccc13)=C(c1ccccc1)C2=O` (stereo not shown) [XXVII], the E1/2 entry was “+122 mV”.
`CCCCCCCCCCCCC1CC2=C(C1)C(=O)C(c1ccccc1)=C(CN(C)C(=O)Oc1ccc(N=Nc3ccc([N+](=O)[O-])cc3S(C)(=O)=O)c3c(NS(=O)(=O)c4cccc(S(N)(=O)=O)c4)cccc13)C2=O` (stereo not shown) [XXV]: the E1/2 entry is “+222 mV”.
For the molecule `CN(CC1=C(c2ccc([N+](=O)[O-])cc2)C(=O)C2=C(CCCC2)C1=O)C(=O)Oc1ccc2c3c(cccc13)C(=O)C=C2` [XXXIII], the E1/2 result is “+236 mV”.
Consider `CN(CC1=C(c2cccc([N+](=O)[O-])c2)C(=O)C2=C(CCCC2)C1=O)C(=O)Oc1ccc2c3c(cccc13)C(=O)C=C2` [XXXII], for which the E1/2 entry is given as “+214 mV”.
For the molecule `CN(CC1=C(c2cc(Cl)ccc2Cl)C(=O)C2=C(CCC2)C1=O)C(=O)Oc1ccc2c3c(cccc13)C(=O)C=C2` [XXXI], the E1/2 entry is recorded as “+236 mV”.
Regarding `CC1=C(C)C(=O)C(c2ccccc2)=C(CN(C)C(=O)Oc2ccc(N=Nc3ccc([N+](=O)[O-])cc3S(C)(=O)=O)c3c(NS(=O)(=O)c4cccc(S(N)(=O)=O)c4)cccc23)C1=O` [XXXVI], the E1/2 result is on record as “+144 mV”.

Staying with this series, now noted: quinone nucleus with H in place of the releasing group; denoted *: measured in acetonitrile, saturated calomel electrode.
For the molecule `CN(CC1=C(c2ccccc2)C(=O)C(CN(C)C(=O)Oc2ccc(N=Nc3ccc([N+](=O)[O-])cc3S(C)(=O)=O)c3c(NS(=O)(=O)c4cccc(S(N)(=O)=O)c4)cccc23)=C(c2ccccc2)C1=O)C(=O)Oc1ccc(N=Nc2ccc([N+](=O)[O-])cc2S(C)(=O)=O)c2c(NS(=O)(=O)c3cccc(S(N)(=O)=O)c3)cccc12` [IV], the E1/2 is given as -460 mV.
`CCCCCCCCCCNS(=O)(=O)c1ccc(C(C)C2=C(CN(C)C(=O)Oc3ccc(N=Nc4ccc([N+](=O)[O-])cc4S(C)(=O)=O)c4c(NS(=O)(=O)c5cccc(S(N)(=O)=O)c5)cccc34)C(=O)C(C(C)c3ccc(S(=O)(=O)NCCCCCCCCCC)cc3)=C(CN(C)C(=O)Oc3ccc(N=Nc4ccc([N+](=O)[O-])cc4S(C)(=O)=O)c4c(NS(=O)(=O)c5cccc(S(N)(=O)=O)c5)cccc34)C2=O)cc1` (stereo not shown) [I]: the E1/2 is -528 mV.
Regarding `CCCCCCCCCCNS(=O)(=O)c1ccc(C(C)C2=C(CN(C)C(=O)Oc3ccc4c(C)cc(=O)oc4c3)C(=O)C(C(C)c3ccc(S(=O)(=O)NCCCCCCCCCC)cc3)=C(CN(C)C(=O)Oc3ccc4c(C)cc(=O)oc4c3)C2=O)cc1` (stereo not shown) [XXII], the E1/2 was -528 mV.
Same read-out and setting: for `CCCCCCCCCCNS(=O)(=O)c1ccc(C(C)C2=C(CN(C)C(=O)Oc3ccc(N=Nc4cccc(S(N)(=O)=O)c4)c4c(NS(C)(=O)=O)cccc34)C(=O)C(C(C)c3ccc(S(=O)(=O)NCCCCCCCCCC)cc3)=C(CN(C)C(=O)Oc3ccc(N=Nc4cccc(S(N)(=O)=O)c4)c4c(NS(C)(=O)=O)cccc34)C2=O)cc1` (stereo not shown) [XXI] the value was -528 mV.

Values taken from US4888287A, “Rapid differentiation of fungi from bacteria using polyene antibiotics” (Eastman Kodak Company, priority 1986, dated 1989).
